Results from patent publication US20090232838A1, “Ligands of melanocortin receptors” (priority 2005, published 2009).
pEC50: −log10 of the molar value. Where two headings read alike, the source gives them in different places.

Columns and labels:
Format in all cases: cell-based
hMC1-R = target: T1, hMC1-R (Homo sapiens, UniProt Q01726); assay: cyclic AMP bioassay, hMC1-R
T1 construct: expressed in transfected cells; host or cells: CHO-K1
Procedure: (§1) Intracellular cyclic AMP (cAMP) levels were determined by an electrochemiluminescence (ECL) assay (Meso Scale Discovery®, Gaithersburg, Md.; referred to hereinafter as MSD). […] Transgenic CHO-K1 cells stably expressing hMC receptor subtypes 1, 3, 4 or 5 were dispensed at a density of approximately 7,000 cells/well in 384-well Multi-Arrays plates (MSD) containing integrated carbon electrodes and coated with anti-CAMP antibody. Increasing concentrations of the test compounds were added and the cells were incubated for approximately 40 minutes at approximately 37° C. […] At the end of the second incubation period read buffer (Tris-buffered solution containing an ECL co-reactant and Triton X-100 at ph 7.8) was added and the cAMP levels in the cell lysates were immediately determined by ECL detection with a Sector Imager 6000 Reader® (MSD). Data were analyzed using a computer-assisted non-linear regression analysis (XL fit; IDBS) and reported as either an EC50 value or a Kb value.
(§2) The Kb value reflects the potency of an antagonist and is determined by Schild analysis. In brief, concentration-response curves of an agonist are carried out in the presence of increasing concentrations of an antagonist. […] It is calculated by extrapolating the line on a Schild plot to zero on the y-axis.

hMC3-R = target: T2, hMC3-R (Homo sapiens, UniProt P41968); assay: cyclic AMP bioassay, hMC3-R
T2 construct: expressed in transfected cells; host or cells: CHO-K1
T2 sequence (P41968 whole entry): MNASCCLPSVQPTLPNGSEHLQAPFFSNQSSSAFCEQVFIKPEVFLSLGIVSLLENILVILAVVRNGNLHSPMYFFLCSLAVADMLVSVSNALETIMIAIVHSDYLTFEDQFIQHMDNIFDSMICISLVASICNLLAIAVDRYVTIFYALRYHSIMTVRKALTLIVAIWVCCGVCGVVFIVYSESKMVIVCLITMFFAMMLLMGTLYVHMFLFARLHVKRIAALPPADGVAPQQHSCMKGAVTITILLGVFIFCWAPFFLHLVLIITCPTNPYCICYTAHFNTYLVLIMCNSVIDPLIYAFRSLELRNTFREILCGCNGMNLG
Procedure: as §1, §2

hMC4-R = target: T3, hMC4-R (Homo sapiens, UniProt P32245); assay: cyclic AMP bioassay, hMC4-R
T3 construct: expressed in transfected cells; host or cells: CHO-K1
T3 sequence (P32245 whole entry): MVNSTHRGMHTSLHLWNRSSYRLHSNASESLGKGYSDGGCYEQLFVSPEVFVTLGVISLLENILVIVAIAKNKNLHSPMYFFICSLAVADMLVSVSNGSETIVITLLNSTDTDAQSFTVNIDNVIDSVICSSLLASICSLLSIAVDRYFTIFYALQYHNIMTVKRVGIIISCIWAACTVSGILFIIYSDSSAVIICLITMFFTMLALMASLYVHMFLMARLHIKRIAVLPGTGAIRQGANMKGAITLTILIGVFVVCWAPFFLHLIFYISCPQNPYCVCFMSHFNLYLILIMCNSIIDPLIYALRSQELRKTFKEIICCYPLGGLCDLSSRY
Procedure: as §1, §2

hMC5-R = target: T4, hMC5-R (Homo sapiens, UniProt P33032); assay: cyclic AMP bioassay, hMC5-R
T4 construct: expressed in transfected cells; host or cells: CHO-K1
T4 sequence (P33032 whole entry): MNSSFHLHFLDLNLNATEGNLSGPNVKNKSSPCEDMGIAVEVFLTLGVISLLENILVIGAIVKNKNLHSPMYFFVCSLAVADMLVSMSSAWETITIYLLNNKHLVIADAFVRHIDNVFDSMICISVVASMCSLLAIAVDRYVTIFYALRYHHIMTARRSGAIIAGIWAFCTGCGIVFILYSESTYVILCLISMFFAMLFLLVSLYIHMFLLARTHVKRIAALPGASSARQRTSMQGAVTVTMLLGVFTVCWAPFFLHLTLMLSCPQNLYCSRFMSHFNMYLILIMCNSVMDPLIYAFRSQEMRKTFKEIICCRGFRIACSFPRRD
Procedure: as §1, §2

[1] = Table 3A, cAMP in CHO-K1 cells, antagonist potency by Schild analysis, read-out: Kb hMC3-R
[2] = Table 3A, cAMP in CHO-K1 cells, antagonist potency by Schild analysis, read-out: Kb hMC4-R

T1 sequence (Q01726 whole entry): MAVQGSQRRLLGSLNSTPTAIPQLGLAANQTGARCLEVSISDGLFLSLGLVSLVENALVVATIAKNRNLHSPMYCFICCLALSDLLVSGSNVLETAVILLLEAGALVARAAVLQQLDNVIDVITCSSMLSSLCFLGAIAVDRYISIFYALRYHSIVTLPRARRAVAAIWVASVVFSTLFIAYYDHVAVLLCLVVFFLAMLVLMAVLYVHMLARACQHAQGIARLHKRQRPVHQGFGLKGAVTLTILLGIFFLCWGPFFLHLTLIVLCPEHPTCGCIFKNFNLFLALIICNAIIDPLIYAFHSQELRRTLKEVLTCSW

Structure (SMILES)	pEC50 (hMC1-R)	Kb (hMC3-R) [nM]	Kb (hMC4-R) [nM]	pEC50 (hMC5-R)	Kb (hMC3-R; [1]) [nM]	Kb (hMC4-R; [2]) [nM]
CCCC[C@H](NC(C)=O)C(=O)N[C@H]1CSSC[C@@H](C(=O)NCCC(=O)N[C@@H](Cc2ccc(O)cc2)C(=O)NCC(=O)N[C@@H](CCCNC(=N)N)C(=O)N[C@@H](CCCNC(=N)N)C(=O)N[C@@H](CCCNC(=N)N)C(=O)N[C@@H](CCCNC(=N)N)C(=O)N[C@@H](CCCNC(=N)N)C(=O)N[C@@H](CCC(N)=O)C(=O)N[C@@H](CCCNC(=N)N)C(=O)N[C@@H](CCCNC(=N)N)C(=O)N[C@@H](CCCNC(=N)N)C(N)=O)NC(=O)[C@H](Cc2c[nH]c3ccccc23)NC(=O)[C@H](CCCNC(=N)N)NC(=O)[C@@H](Cc2ccccc2)NC(=O)[C@H](Cc2c[nH]cn2)NC(=O)[C@@H](C)NC1=O	8.10	10.5	0.843	5.31		
CC(=O)N[C@H]1CSSC[C@@H](C(=O)N2CCC[C@H]2C(=O)N2CCC[C@H]2C(=O)N[C@@H](CCCCN)C(=O)N[C@@H](CC(=O)O)C(=O)NCCC(=O)N[C@@H](Cc2ccc(O)cc2)C(=O)NCC(=O)N[C@@H](CCCNC(=N)N)C(=O)N[C@@H](CCCCN)C(=O)N[C@@H](CCCCN)C(=O)N[C@@H](CCCNC(=N)N)C(=O)N[C@@H](CCCNC(=N)N)C(=O)N[C@@H](CCC(N)=O)C(=O)N[C@@H](CCCNC(=N)N)C(=O)N[C@@H](CCCNC(=N)N)C(=O)N[C@@H](CCCNC(=N)N)C(N)=O)NC(=O)[C@H](C)NC(=O)[C@H](Cc2cccc3ccccc23)NC(=O)[C@H](CCCNC(=N)N)NC(=O)[C@@H](Cc2ccc3ccccc3c2)NC(=O)[C@H](Cc2c[nH]cn2)NC(=O)[C@H](CCC(=O)O)NC1=O	7.36	215	5.87	5.89		
CC(=O)N[C@H]1CSSC[C@@H](C(=O)N2CCC[C@H]2C(=O)N2CCC[C@H]2C(=O)N[C@@H](CCCCN)C(=O)N[C@@H](CC(=O)O)C(=O)NCCC(=O)N[C@@H](CCCNC(=N)N)C(=O)N[C@@H](CCCNC(=N)N)C(=O)N[C@@H](CCCNC(=N)N)C(=O)N[C@@H](CCCNC(=N)N)C(=O)N[C@@H](CCCNC(=N)N)C(=O)N[C@@H](CCC(N)=O)C(=O)N[C@@H](CCCNC(=N)N)C(=O)N[C@@H](CCCNC(=N)N)C(=O)N[C@@H](CCCNC(=N)N)C(N)=O)NC(=O)[C@H](C)NC(=O)[C@H](Cc2cccc3ccccc23)NC(=O)[C@H](CCCNC(=N)N)NC(=O)[C@@H](Cc2ccc3ccccc3c2)NC(=O)[C@H](Cc2c[nH]cn2)NC(=O)[C@H](CCC(=O)O)NC1=O	7.44	46.5	11.4	7.25		
CC(=O)N[C@H]1CSSC[C@@H](C(=O)N2CCC[C@H]2C(=O)N2CCC[C@H]2C(=O)N[C@@H](CCCCN)C(=O)N[C@@H](CC(=O)O)C(=O)NCCC(=O)N[C@@H](Cc2ccc(O)cc2)C(=O)NCC(=O)N[C@@H](CCCNC(=N)N)C(=O)N[C@@H](CCCCN)C(=O)N[C@@H](CCCCN)C(=O)N[C@@H](CCCNC(=N)N)C(=O)N[C@@H](CCCNC(=N)N)C(=O)N[C@@H](CCC(N)=O)C(=O)N[C@@H](CCCNC(=N)N)C(=O)N[C@@H](CCCNC(=N)N)C(=O)N[C@@H](CCCNC(=N)N)C(N)=O)NC(=O)[C@H](C)NC(=O)[C@H](Cc2ccc3ccccc3c2)NC(=O)[C@H](CCCNC(=N)N)NC(=O)[C@@H](Cc2ccc3ccccc3c2)NC(=O)[C@H](Cc2c[nH]cn2)NC(=O)[C@H](CCC(=O)O)NC1=O	7.53	25.6	7.37	7.08		
CC(=O)N[C@H]1CSSC[C@@H](C(=O)N2CCC[C@H]2C(=O)N2CCC[C@H]2C(=O)N[C@@H](CCCCN)C(=O)N[C@@H](CC(=O)O)C(=O)NCCC(=O)NCC(=O)N[C@@H](CCCNC(=N)N)C(=O)N[C@@H](CCCNC(=N)N)C(=O)N[C@@H](CCCCN)C(=O)N[C@@H](CCCNC(=N)N)C(=O)N[C@@H](CCCNC(=N)N)C(=O)N[C@@H](CCC(N)=O)C(=O)N[C@@H](CCCNC(=N)N)C(=O)N[C@@H](CCCNC(=N)N)C(=O)N[C@@H](CCCNC(=N)N)C(N)=O)NC(=O)[C@H](C)NC(=O)[C@H](Cc2ccc3ccccc3c2)NC(=O)[C@H](CCCNC(=N)N)NC(=O)[C@@H](Cc2ccc3ccccc3c2)NC(=O)[C@H](Cc2c[nH]cn2)NC(=O)[C@H](CCC(=O)O)NC1=O	7.34	12.7	12.7	6.79		
CC(=O)N[C@H]1CSSC[C@@H](C(=O)N2CCC[C@H]2C(=O)N2CCC[C@H]2C(=O)N[C@@H](CCCCN)C(=O)N[C@@H](CC(=O)O)C(=O)NCCC(=O)N[C@@H](Cc2ccc(O)cc2)C(=O)NCC(=O)N[C@@H](CCCNC(=N)N)C(=O)N[C@@H](CCCCN)C(=O)N[C@@H](CCCCN)C(=O)N[C@@H](CCCNC(=N)N)C(=O)N[C@@H](CCCNC(=N)N)C(=O)N[C@@H](CCCNC(=N)N)C(=O)N[C@@H](CCCNC(=N)N)C(=O)N[C@@H](CCCNC(=N)N)C(=O)N[C@@H](CCC(N)=O)C(N)=O)NC(=O)[C@H](C)NC(=O)[C@H](Cc2c[nH]c3ccccc23)NC(=O)[C@H](CCCNC(=N)N)NC(=O)[C@@H](Cc2ccc3ccccc3c2)NC(=O)[C@H](Cc2c[nH]cn2)NC(=O)[C@H](CCC(=O)O)NC1=O	8.12	12.2	7.61	7.29		
CC(=O)N[C@H]1CSSC[C@@H](C(=O)N2CCC[C@H]2C(=O)N2CCC[C@H]2C(=O)N[C@@H](CCCCN)C(=O)N[C@@H](CC(=O)O)C(=O)NCCC(=O)N[C@@H](Cc2ccc(O)cc2)C(=O)NCC(=O)N[C@@H](CCCNC(=N)N)C(=O)N[C@@H](CCCCN)C(=O)N[C@@H](CCCCN)C(=O)N[C@@H](CCCNC(=N)N)C(=O)N[C@@H](CCC(N)=O)C(=O)N[C@@H](CCCNC(=N)N)C(=O)N[C@@H](CCCNC(=N)N)C(=O)N[C@@H](CCCNC(=N)N)C(=O)N[C@@H](CCCNC(=N)N)C(N)=O)NC(=O)[C@H](C)NC(=O)[C@H](Cc2c[nH]c3ccccc23)NC(=O)[C@H](CCCNC(=N)N)NC(=O)[C@@H](Cc2ccc3ccccc3c2)NC(=O)[C@H](Cc2c[nH]cn2)NC(=O)[C@H](CCC(=O)O)NC1=O	7.82	14.6	4.52	7.43		
CC(=O)N[C@H]1CSSC[C@@H](C(=O)N2CCC[C@H]2C(=O)N2CCC[C@H]2C(=O)N[C@@H](CCCCN)C(=O)N[C@@H](CC(=O)O)C(=O)NCCOCCOCC(=O)N[C@@H](Cc2ccc(O)cc2)C(=O)NCC(=O)N[C@@H](CCCNC(=N)N)C(=O)N[C@@H](CCCCN)C(=O)N[C@@H](CCCCN)C(=O)N[C@@H](CCCNC(=N)N)C(=O)N[C@@H](CCCNC(=N)N)C(=O)N[C@@H](CCC(N)=O)C(=O)N[C@@H](CCCNC(=N)N)C(=O)N[C@@H](CCCNC(=N)N)C(=O)N[C@@H](CCCNC(=N)N)C(N)=O)NC(=O)CNC(=O)[C@H](Cc2c[nH]c3ccccc23)NC(=O)[C@H](CCCNC(=N)N)NC(=O)[C@@H](Cc2ccc3ccccc3c2)NC(=O)[C@H](Cc2c[nH]cn2)NC(=O)[C@H](CCC(=O)O)NC1=O					17.7	1.49
CCCC[C@H](NC(=O)[C@H](CCCNC(=N)N)NC(=O)[C@H](CCCNC(=N)N)NC(=O)[C@H](CCCNC(=N)N)NC(=O)[C@H](CCC(N)=O)NC(=O)[C@H](CCCNC(=N)N)NC(=O)[C@H](CCCNC(=N)N)NC(=O)[C@H](CCCCN)NC(=O)[C@H](CCCCN)NC(=O)[C@H](CCCNC(=N)N)NC(=O)CNC(=O)[C@@H](N)Cc1ccc(O)cc1)C(=O)N[C@H]1CC(=O)NCCCC[C@@H](C(N)=O)NC(=O)[C@H](Cc2c[nH]c3ccccc23)NC(=O)[C@H](CCCNC(=N)N)NC(=O)[C@@H](Cc2ccc3ccccc3c2)NC(=O)[C@H](Cc2c[nH]cn2)NC1=O					4500	105
